In patent publication US20260116845A1, “LIPIDS AND COMPOSITIONS THEREOF” (Kernal Biologics, Inc., priority 2023, published 2026):

Columns and labels:
MC38.K Cell Line = assay: Transfection of MC38.K Cell Line with FLuc mRNA LNPs (ONE-Glo EX luciferase signal); assay type: cell-based; details: 200 ng Fluc mRNA-LNP, 24 hours; for Total Luciferin Signal (RLU) In Vitro-MC38: Table 5; for Total Luciferin Signal (RLU) In Vitro - MC38.K: Table 4
Method in brief: (§1)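 Firefly luciferase luminescence measured 24 h after transfection with 200 ng mRNA-LNP per well in Opti-MEM. Seeding: 5,000 cells/well for B16F10 and MC38.K, 20,000 for AML12. LNPs were pre-incubated 30 min with mouse serum; mRNA content determined by RiboGreen.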

Liver = assay: Ex-vivo luminescence signal from liver after IV Fluc mRNA LNPs in CD1 mice (IVIS); details: tail vein 1.0 mg/kg Day 0 and Day 2, imaging 18 hours after second dose; for Total Liver Tissue Luciferin Signal (Photons/s) In Vivo-Cd1: Table 5
Spleen = assay: Ex-vivo luminescence signal from spleen after IV Fluc mRNA LNPs in CD1 mice (IVIS); details: tail vein 1.0 mg/kg Day 0 and Day 2, imaging 18 hours after second dose, Table 5
AML12 Cell Line = assay: Transfection of AML12 Cell Line with FLuc mRNA LNPs (ONE-Glo EX luciferase signal); assay type: cell-based; details: 200 ng Fluc mRNA-LNP, 24 hours
Method in brief: as §1

B16F10 Cell Line = assay: Transfection of B16F10 Cell Line with FLuc mRNA LNPs (ONE-Glo EX luciferase signal); assay type: cell-based; details: 200 ng Fluc mRNA-LNP, 24 hours
Method in brief: as §1

Structure (SMILES)	Total Luciferin Signal (RLU) In Vitro-MC38 (MC38.K Cell Line) [RLU]	Total Liver Tissue Luciferin Signal (Photons/s) In Vivo-Cd1 (Liver) [Photons/s]	Total Spleen Tissue Luciferin Signal (Photons/s) In Vivo-Cd1 (Spleen) [Photons/s]	Total Luciferin Signal (RLU) In Vitro - AML12 (AML12 Cell Line; Table 5) [RLU]	Total Luciferin Signal (RLU) In Vitro - B16F10 (B16F10 Cell Line; Table 5) [RLU]	Total Luciferin Signal (RLU) In Vitro - MC38.K (MC38.K Cell Line) [RLU]	Total Liver Tissue Luciferin Signal (Photons/s) Ex-vivo - CD1 (Liver; Table 4) [Photons/s]	Total Luciferin Signal (RLU) In Vitro - AML12 (AML12 Cell Line; Table 4) [RLU]	Total Luciferin Signal (RLU) In Vitro - B16F10 (B16F10 Cell Line; Table 4) [RLU]	Total Liver Tissue Luciferin Signal (Photons/s) In Vitro - CD1 (Liver; Table 4) [Photons/s]
CCCCCCCC/C=C\CCCCCCC1CN(CCCOC(=O)CCN(C)C)CC(CCCCCC/C=C\CCCCCCCC)O1 (stereo not drawn) [Compound 96, 3-(2,6-di((Z)-hexadec-7-en-1-yl)morpholino)propyl 3-(dimethylamino)propanoate]	1.25E+05	4.34E+06	6.35E+06	1.49E+05	1.16E+05	–	–	–	–	–
CCCCCCCC/C=C\CCCCCCC1CN(CCOC(=O)CCCN(C)C)CC(CCCCCC(=O)OC(CCCCCCCC)CCCCCCCC)O1 (stereo not drawn) [Compound 94, heptadecan-9-yl (Z)-6-(4-(2-((4-(dimethylamino)butanoyl)oxy)ethyl)-6-(hexadec-7-en-1-yl)morpholin-2-yl)hexanoate]	1.75E+06	1.30E+07	1.22E+07	1.41E+06	2.82E+06	–	–	–	–	–
CCCCCCCCCCCCC1CN(CCO)CC(CCCCCCCCCCCC)O1 (stereo not drawn) [Compound 90, 2-(2,6-didodecylmorpholino)ethan-1-ol]	–	3.35E+06	5.69E+05	2.69E+04	8.93E+04	–	–	–	–	–
CCCCCCCCC(CCCCCCCC)OC(=O)CCCCCC1CN(CCOC(=O)CCN(C)C)CC(CCCCCC(=O)OC(CCCCCCCC)CCCCCCCC)O1 (stereo not drawn) [Compound 100, di(heptadecan-9-yl) 6,6′-(4-(2-((3-(dimethylamino)propanoyl)oxy)ethyl)morpholine-2,6-diyl)dihexanoate]	3.18E+04	6.44E+09	2.92E+07	1.43E+04	6.29E+04	–	–	–	–	–
CCCCCCCC/C=C\CCCCCCC1CN(CCO)CC(CCCCCC/C=C\CCCCCCCC)O1 (stereo not drawn) [Compound 92, 2-(2,6-di((Z)-hexadec-7-en-1-yl)morpholino)ethan-1-ol]	–	1.07E+07	2.05E+06	2.46E+04	8.03E+05	–	–	–	–	–
CCCCCCCCC(CCCCCCCCF)OC(=O)CCCCCN(CCCCO)CCCCCC(=O)OCCCCCCCCCCC(C)C (stereo not drawn) [Compound 63, 1-fluoroheptadecan-9-yl 6-((4-hydroxybutyl)(6-((11-methyldodecyl)oxy)-6-oxohexyl)amino)hexanoate]	–	–	–	–	–	1.35E+07	3.02E+09	5.69E+05	6.91E+05	–
[2H]C([2H])(O)C([2H])([2H])N(CCCCCCCC(=O)OCCCCCCCCC)CCCCCCCC(=O)OC(CCCCCCCC)CCCCCCCC [Compound 39, heptadecan-9-yl 8-((2-hydroxyethyl-1,1,2,2-d4)(8-(nonyloxy)-8-oxooctyl)amino)octanoate]	–	–	–	–	–	8.82E+05	–	6.92E+05	3.58E+05	7.86E+06
CCCCCCCCC(CCCCCCCC)OC(=O)CCCCCCCN(CCO)CCCCCCCC(=O)OCCCCCCCCC(C)C [Compound 2]	–	–	–	–	–	4.24E+06	6.20E+09	4.76E+06	5.94E+06	–
CCCCCCCCC(CCCCCCCCF)OC(=O)CCCCCN(CCO)CCCCCC(=O)OCCCCCCCCCCC(C)C (stereo not drawn) [Compound 70, 1-fluoroheptadecan-9-yl 6-((2-hydroxyethyl)(6-((11-methyldodecyl)oxy)-6-oxohexyl)amino)hexanoate]	–	–	–	–	–	5.15E+06	4.87E+09	7.41E+05	7.68E+05	–
CCCCCCCCCOC(=O)CCCCCCCN(CCCCCCC(C)C(=O)OC(CCCCCCCC)CCCCCCCC)CCOC(=O)CCCN(C)C (stereo not drawn) [Compound 38, heptadecan-9-yl 8-((2-((4-(dimethylamino)butanoyl)oxy)ethyl)(8-(nonyloxy)-8-oxooctyl)amino)-2-methyloctanoate]	–	–	–	–	–	2.06E+06	5.28E+07	1.22E+06	2.75E+06	–
CCCCCCCC/C=C\CCCCCCC1CN(CCO)CC(CCCCCCCCCCCC)O1 (stereo not drawn) [Compound 91, (Z)-2-(2-dodecyl-6-(hexadec-7-en-1-yl)morpholino)ethan-1-ol]	–	3.65E+06	1.44E+06	1.94E+04	2.02E+05	–	–	–	–	–
CCCCCCCCC(CCCCCCCC)OC(=O)CCCCCCCN(CCCCCCCC(=O)OCCCCCCCCC(C)C)CCOC(=O)CCCN(C)C [Compound 3]	–	–	–	–	–	2.99E+06	8.57E+07	3.82E+06	4.58E+06	–
CCCCCCCCCOC(=O)C(C)CCCCCCN(CCO)CCCCCCCC(=O)OC(CCCCCCCC)CCCCCCCCF (stereo not drawn) [Compound 61, nonyl 8-((8-((1-fluoroheptadecan-9-yl)oxy)-8-oxooctyl)(2-hydroxyethyl)amino)-2-methyloctanoate]	–	–	–	–	–	1.11E+07	1.38E+10	8.13E+05	9.46E+05	–
CCCCCCCCC(CCCCCCCCF)OC(=O)CCCCCCCN(CCO)CCCCCC(=O)OCCCCCCC(C)C (stereo not drawn) [Compound 57, 1-fluoroheptadecan-9-yl 8-((2-hydroxyethyl)(6-((7-methyloctyl)oxy)-6-oxohexyl)amino)octanoate]	–	–	–	–	–	1.42E+07	1.05E+10	2.63E+06	1.27E+06	–
CCCCCCCCC(CCCCCCCC)C(=O)OCCCCCCCN(CCO)CCCCCCCC(=O)OCCCCCCCCC(C)C [Compound 4]	–	–	–	–	–	3.54E+06	1.06E+09	1.72E+06	2.16E+06	–
CCCCCCCCCCCOC(=O)CCCCCN(CCO)CCCCCCCC(=O)OC(CCCCCCCC)CCCCCCCCF (stereo not drawn) [Compound 33]	–	–	–	–	–	1.07E+06	2.93E+09	1.38E+05	4.80E+05	–
CCCCCCCCC(CCCCCCCC)OC(=O)CCCCCCCN(CCCCCCCOC(=O)CCCCCCCCC(C)C)CCOC(=O)CCCN(C)C [Compound 12]	–	–	–	–	–	4.07E+06	4.15E+07	7.43E+05	2.79E+06	–
CCCCCCCCCOC(=O)C(C)CCCCCCN(CCO)CCCCCCCC(=O)OC(CCCCCCCC)CCCCCCCC (stereo not drawn) [Compound 37]	–	–	–	–	–	1.00E+06	6.65E+09	7.63E+05	2.66E+06	–
CCCCCCCCCOC(=O)CCCCCCCN(CCO)CCCCCCCC(=O)OCC(CCCCCC)CCCCCCCCF (stereo not drawn) [Compound 72, 10-fluoro-2-hexyldecyl 8-((2-hydroxyethyl)(8-(nonyloxy)-8-oxooctyl)amino)octanoate]	–	–	–	–	–	5.53E+06	3.60E+09	2.78E+06	7.23E+05	–
CCCCCCCCCOC(=O)C(C)CCCCCCN(CCCCO)CCCCCCCC(=O)OC(CCCCCCCC)CCCCCCCC (stereo not drawn) [Compound 62, nonyl 8-((8-(heptadecan-9-yloxy)-8-oxooctyl)(4-hydroxybutyl)amino)-2-methyloctanoate]	–	–	–	–	–	3.47E+07	1.03E+10	2.33E+06	2.73E+06	–
CCCCCCCCCC(=O)OCCCCCCCN(CCO)CCCCCCCC(=O)OC(CCCCCCCC)CCCCCCCCF (stereo not drawn) [Compound 32]	–	–	–	–	–	4.43E+05	3.13E+09	1.53E+05	2.09E+05	–
